Test results published in patent publication US11324725B2, “Compositions and methods for the inhibition of pruritus” (The United States of America, as represented by the …, priority 2017, dated 2022).
Entries after “also recorded” stand apart in the source; their conditions may differ.

Target: T1, hNpr1 (Homo sapiens, UniProt P16066)
T1 sequence (P16066 33-1061): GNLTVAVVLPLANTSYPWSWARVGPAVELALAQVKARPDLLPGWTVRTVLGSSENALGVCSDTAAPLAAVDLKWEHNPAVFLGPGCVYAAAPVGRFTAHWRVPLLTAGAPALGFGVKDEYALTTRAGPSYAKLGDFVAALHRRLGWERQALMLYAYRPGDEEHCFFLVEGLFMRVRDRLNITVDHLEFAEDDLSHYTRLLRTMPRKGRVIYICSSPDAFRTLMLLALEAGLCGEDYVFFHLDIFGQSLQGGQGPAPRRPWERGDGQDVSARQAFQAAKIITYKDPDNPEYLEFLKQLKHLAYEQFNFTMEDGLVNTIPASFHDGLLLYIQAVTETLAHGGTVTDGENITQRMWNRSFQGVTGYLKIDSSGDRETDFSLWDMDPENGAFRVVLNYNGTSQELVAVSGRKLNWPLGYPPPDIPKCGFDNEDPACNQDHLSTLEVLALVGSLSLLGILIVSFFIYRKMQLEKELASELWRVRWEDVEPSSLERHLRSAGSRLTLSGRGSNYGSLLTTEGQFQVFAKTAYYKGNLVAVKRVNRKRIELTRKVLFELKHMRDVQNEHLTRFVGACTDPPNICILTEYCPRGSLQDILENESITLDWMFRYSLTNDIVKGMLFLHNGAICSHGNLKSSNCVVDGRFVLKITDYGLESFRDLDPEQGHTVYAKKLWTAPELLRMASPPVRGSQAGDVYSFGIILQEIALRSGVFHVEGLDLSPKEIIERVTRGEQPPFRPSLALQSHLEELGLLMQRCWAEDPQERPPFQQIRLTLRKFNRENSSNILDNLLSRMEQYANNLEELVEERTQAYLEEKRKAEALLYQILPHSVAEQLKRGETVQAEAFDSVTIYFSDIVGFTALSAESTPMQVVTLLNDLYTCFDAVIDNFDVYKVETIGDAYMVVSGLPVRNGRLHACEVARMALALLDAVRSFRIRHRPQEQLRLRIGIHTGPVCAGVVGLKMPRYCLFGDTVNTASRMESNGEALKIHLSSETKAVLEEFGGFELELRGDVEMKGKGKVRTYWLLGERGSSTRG
Experiment: GloSensor assay in 96-well format, HEK-hNpr1-cGMP-sensor cells
Assay type: cell-based
Set-up: Reversibility of hNpr1 inhibition after washing: dose or concentration left out as unconfirmed
Conditions: for Imax [%] (mean ± SEM), GloSensor 96-well format / IC50: 60 pM hNppa 5 minutes after compound; for IC50: read-out: IC50 [μM] (mean ± SEM), GloSensor 96-well format; for Ki: calculated with Cheng-Prusoff equation from Table 3, read-out: Ki hNpr1 GloSensor™ [μM] (mean ± SEM); for Basal (unstimulated) hNpr1 activity: HEK-hNpr1-cGMP-sensor cells, no agonist; for Effect on hNppa concentration-response at fixed antagonist concentration: 5 μM antagonist, increasing hNppa, GloSensor and membrane cyclase assays (FIGS. 5B-C)
Protocol: Before the measurement (24 hours in advance), 3×10^4 cells were seeded into white 96-well plates (PerkinElmer, Waltham, Mass.), coated with 0.1% poly(D-lysine), and assays conducted as recommended by the manufacturer (Promega). Medium was aspirated and cells were loaded for two hours at room temperature with 2% GoSensor™ reagent diluted in CO2-independent media (ThermoFisher) supplemented with 2 mM L-glutamine and 10% FBS (assay medium). Luminescence was measured on a BioTek Synergy™ NEO (Winooski, Vt.) plate reader at room temperature. After a baseline measurement of 3-5 minutes, assay medium as a control or assay medium with agonist was manually added, and luminescence was measured for 30 minutes at ˜ 1/60 Hz. For compounds tested for Npr1 and Npr2 inhibition, the compounds were added after baseline measurements, and luminescence was read for 5 minutes before addition of agonist. Luminescence was then normalized to baseline measurements and plotted against the time. Ligand-induced changes of cGMP production were quantified by determining the area under the curve. To determine efficacy and potency of agonists, ligand-induced changes were normalized to medium only addition and plotted against the ligand concentration. […] To quantify […] of compounds, compound-induced changes of agonist-induced cGMP production were normalized to vehicle controls, plotted against compound concentration, and fit with a four-parameter logistic regression. Effects of A-71915 on basal mNpr1 activity were fitted with a bell-shaped regression (equation indicated below).
Additional screens of the fifteen candidates corroborated hNpr1 inhibition. In particular, HEK-hNpr1-cGMP-sensor cells were seeded in 96-wells and stimulated with 60 pM hNppa 5 minutes after addition of candidate compounds or A-71915 and luminescence was measured for 30 minutes. Inhibitors were titrated to calculate apparent potency (IC50) and efficacy (Imax) of inhibition of hNppa-induced cGMP production.

IC50 [µM] | Ki [µM] | SMILES | Imax [%] (mean ± SEM), GloSensor 96-well format | Basal (unstimulated) hNpr1 activity | Effect on hNppa concentration-response at fixed antagonist concentration | Reversibility of hNpr1 inhibition after washing (5 minutes compound, 5-minute washing step, then hNppa)
3.1 ± 1.4 | 0.49 ± 0.215 | Cc1nn2c(c1-c1ccccc1OCc1ccccc1)N(C(=O)Cc1ccccn1)CCC2 [JS-9, 1-(3-(2-(benzyloxy)phenyl)-2-methyl-6,7-dihydropyrazolo[1,5-a]pyrimidin-4(5H)-yl)-2-(pyridin-2-yl)ethan-1-one] | −93.4 ± 6.4 |  |  | 
1.1 ± 0.1 | 0.18 ± 0.011 | N#Cc1ccccc1CN1CCCC(C(=O)NCc2ccccc2)CCNC(=O)CC1 (stereo not shown) [JS-13, N-benzyl-1-(2-cyanobenzyl)-4-oxo-1,5-diazacycloundecane-8-carboxamide] | −96.1 ± 0.4 |  |  | 
6.7 ± 6.7 | 1.07 ± 1.08 | Cc1nn2c(c1-c1ccccc1Oc1ccccc1)N(C(=O)Cc1ccc3c(c1)OCO3)CCC2 [JS-10, 2-(benzo[d][1,3]dioxol-5-yl)-1-(2-methyl-3-(2-phenoxyphenyl)-6,7-dihydropyrazolo[1,5-a]pyrimidin-4(5H)-yl)ethan-1-one] | −98.3 ± 1.7 |  |  | 
1.9 ± 0.1 | 0.31 ± 0.023 | COc1ccccc1-c1n[nH]c2ncc(C(=O)NCc3cccnc3)nc12 [JS-6, 3-(2-methoxyphenyl)-N-(pyridin-3-ylmethyl)-1H-pyrazolo[3,4-b]pyrazine-5-carboxamide] | −94.2 ± 5.3 |  |  | 
1.1 ± 0.01 | 0.18 ± 0.002 | COc1cc(CN2CCC(C)(NC(C)=O)CC2)cc(-c2ccncc2)c1 [JS-4, N-(1-(3-methoxy-5-(pyridin-4-yl)benzyl)-4-methylpiperidin-4-yl)acetamide] | −95.5 ± 1.2 |  |  | 

Continued, compound first:

SMILES | IC50 [µM] | Ki [µM] | Imax [%] (mean ± SEM), GloSensor 96-well format | Basal (unstimulated) hNpr1 activity | Effect on hNppa concentration-response at fixed antagonist concentration | Reversibility of hNpr1 inhibition after washing (5 minutes compound, 5-minute washing step, then hNppa)
COc1ccc(C2(C(=O)N3CCC4(CC3)c3nccn3-c3ccccc3CN4C)CC2)cc1 [JS-12, (1-(4-methoxyphenyl)cyclopropyl)(5-methyl-5,6-dihydrospiro[benzo[f]imidazo[1,2-a][1,4]diazepine-4,4′-piperidin]-1′-yl)methanone] | 1.3 ± 0.002 | 0.21 ± 0.0002 | −96.0 ± 1.3 |  |  | 
Cc1cc(CNC(=O)c2ccc3c(c2)n(CC2CC2)c(=O)n3C2CCCCC2)on1 [JS-11, 1-cyclohexyl-3-(cyclopropylmethyl)-N-((3-methylisoxazol-5-yl)methyl)-2-oxo-2,3-dihydro-1H-benzo[d]imidazole-5-carboxamide] | 1.9 ± 0.8 | 0.3 ± 0.134 | −96.3 ± 1.3 | dose dependently inhibited |  | 
O=C(NCc1cccnc1)c1cnc2[nH]nc(-c3ccccc3)c2n1 [JS-7, 3-phenyl-N-(pyridin-3-ylmethyl)-1H-pyrazolo[3,4-b]pyrazine-5-carboxamide] | 1.2 ± 0.5 | 0.19 ± 0.085 |  |  |  | 
Cc1noc(C)c1-c1cc(-c2ccccc2Oc2ccccc2)cn2cncc12 [JS-5, 3,5-dimethyl-4-(6-(2-phenoxyphenyl)imidazo[1,5-a]pyridin-8-yl)isoxazole] | 7.4 ± 0.3 | 1.18 ± 0.048 | −99.9 ± 0.1 | dose dependently inhibited | reduced maximal responses even at extremely high hNppa concentrations | 
Cc1nn2c(c1-c1ccccc1OCc1ccccc1)N(C(=O)Cc1ccc3c(c1)OCO3)CCC2 [JS-8, 2-(benzo[d][1,3]dioxol-5-yl)-1-(3-(2-(benzyloxy)phenyl)-2-methyl-6,7-dihydropyrazolo[1,5-a]pyrimidin-4(5H)-yl)ethan-1-one] | 1.2 ± 0.1 | 0.2 ± 0.013 | −98.8 ± 0.7 | dose dependently inhibited | reduced maximal responses even at extremely high hNppa concentrations | a single washing step was sufficient to completely recover hNpr1 activity; also recorded: reversible
CCC(CC)c1cc([C@H]2CN3CC[C@H]2C[C@@H]3CNS(=O)(=O)c2cccs2)nc(-c2ccncc2)n1 [JS-3, N-(((2R,4S,5R)-5-(6-(pentan-3-yl)-2-(pyridin-4-yl)pyrimidin-4-yl)quinuclidin-2-yl)methyl)thiophene-2-sulfonamide] | 3.1 ± 0.6 | 0.5 ± 0.102 | −99.4 ± 0.6 |  |  | 
CN(Cc1ccccc1)C(=O)c1cn2ccnc(-c3ccccc3)c2n1 [JS-14, N-benzyl-N-methyl-8-phenylimidazo[1,2-a]pyrazine-2-carboxamide] | 3.1 ± 1.1 | 0.5 ± 0.179 |  |  |  | 
